Data as given in patent US8846746B2, “Pyrazole compound and pharmaceutical use thereof” (Japan Tobacco Inc., priority 2011, dated 2014).

Biological target: human SGLT1 (Homo sapiens (Human), UniProt P13866)
Experiment: SGLT1 inhibitory activity: 14C-AMG uptake into CHO-K1 cell line stably expressing human SGLT1
Format: cell-based
Conditions: 14C-AMG uptake, CHO-K1 cells stably expressing human SGLT1
How it was run: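 Human SGLT1 was stably expressed in CHO-K1 cells. Cells were first held 20 min in sodium-free buffer, then exposed to compound in Na(+)/BSA buffer with tracer and AMG (2 mM in the added solution).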

human SGLT1, sequence (P13866 whole entry): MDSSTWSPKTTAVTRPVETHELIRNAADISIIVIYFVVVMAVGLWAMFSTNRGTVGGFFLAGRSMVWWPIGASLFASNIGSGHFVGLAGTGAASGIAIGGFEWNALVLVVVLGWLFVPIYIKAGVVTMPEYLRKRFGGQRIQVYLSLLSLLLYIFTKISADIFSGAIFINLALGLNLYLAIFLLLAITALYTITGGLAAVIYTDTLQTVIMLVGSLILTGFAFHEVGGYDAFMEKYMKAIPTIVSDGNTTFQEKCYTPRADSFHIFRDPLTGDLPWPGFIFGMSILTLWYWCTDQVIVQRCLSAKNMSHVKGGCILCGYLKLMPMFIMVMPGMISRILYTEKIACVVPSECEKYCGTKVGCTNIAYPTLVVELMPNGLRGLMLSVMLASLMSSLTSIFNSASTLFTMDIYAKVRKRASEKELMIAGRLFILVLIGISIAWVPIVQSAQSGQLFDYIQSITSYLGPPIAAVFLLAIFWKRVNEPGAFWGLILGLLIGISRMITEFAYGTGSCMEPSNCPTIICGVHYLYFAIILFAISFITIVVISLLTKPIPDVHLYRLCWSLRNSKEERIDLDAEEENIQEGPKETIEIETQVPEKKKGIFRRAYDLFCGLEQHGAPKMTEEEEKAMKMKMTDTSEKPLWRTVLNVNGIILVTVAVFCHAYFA

Structure (SMILES) | IC50 [nM]
COCCOc1ccc(F)c(-n2nc(NC(=O)[C@@H]3CNC(=O)C3)cc2-c2cccc(COCC(F)(F)F)c2)c1 [Example 462] | 3.4
O=C1C[C@H](C(=O)Nc2cc(-c3cccc(OC(F)(F)F)c3)n(-c3ccccc3F)n2)CN1 [Example 466] | 16
CCC(C)(C)C(=O)c1cccc(-c2cc(NC(=O)[C@@H]3CNC(=O)C3)nn2-c2ccccc2)c1 [Example 470] | 7
O=C1C[C@H](C(=O)Nc2cc(-c3cccc(COCC(F)(F)F)c3)n(-c3ccccc3F)n2)CN1 [Example 471] | 15
O=C1C[C@H](C(=O)Nc2cc(-c3cccc(OC(F)(F)F)c3)n(-c3ccccc3Cl)n2)CN1 [Example 473] | 7.5
O=C1C[C@H](C(=O)Nc2cc(-c3cccc(COCC(F)(F)F)c3)n(-c3ccccc3Cl)n2)CN1 [Example 474] | 7.3
COc1cccc(-n2nc(NC(=O)[C@@H]3CNC(=O)C3)cc2-c2cccc(OC(F)(F)F)c2)c1F [Example 476] | 21
CCOc1cccc(-n2nc(NC(=O)[C@@H]3CNC(=O)C3)cc2-c2cccc(OC(F)(F)F)c2)c1F [Example 477] | 25
CC(C)Oc1cccc(-n2nc(NC(=O)[C@@H]3CNC(=O)C3)cc2-c2cccc(OC(F)(F)F)c2)c1F [Example 478] | 36
COc1cccc(-n2nc(NC(=O)[C@@H]3CNC(=O)C3)cc2-c2cccc(COCC(F)(F)F)c2)c1F [Example 480] | 6.8
CCOc1cccc(-n2nc(NC(=O)[C@@H]3CNC(=O)C3)cc2-c2cccc(COCC(F)(F)F)c2)c1F [Example 481] | 8.7
COCCOc1cccc(-n2nc(NC(=O)[C@@H]3CNC(=O)C3)cc2-c2cccc(COCC(F)(F)F)c2)c1F [Example 483] | 59
CCCc1cccc(-c2cc(NC(=O)[C@@H]3CNC(=O)C3)nn2-c2cccc(OCCCSC)c2)c1 [Example 490] | 7.6
CCCc1cccc(-c2cc(NC(=O)[C@@H]3CNC(=O)C3)nn2-c2cccc(OCC3(C)COC3)c2)c1 [Example 491] | 6.5
CCCc1cccc(-c2cc(NC(=O)[C@@H]3CNC(=O)C3)nn2-c2cccc(OCCCS(C)(=O)=O)c2)c1 [Example 492] | 19
CCCc1cccc(-c2cc(NC(=O)[C@@H]3CNC(=O)C3)nn2-c2cccc(C=C(C)C)c2)c1 [Example 493] | 8.2
C/C=C/c1cccc(-n2nc(NC(=O)[C@@H]3CNC(=O)C3)cc2-c2cccc(CCC)c2)c1 [Example 494] | 9.1
CCCc1cccc(-c2cc(NC(=O)[C@@H]3CNC(=O)C3)nn2-c2cccc(C#CC(C)(C)C)c2)c1 [Example 495] | 22
CCCc1cccc(-c2cc(NC(=O)[C@@H]3CNC(=O)C3)nn2-c2cccc(CC(C)C)c2)c1 [Example 496] | 6.9
CCCc1cccc(-c2cc(NC(=O)[C@@H]3CNC(=O)C3)nn2-c2cccc(CCC)c2)c1 [Example 497] | 3.3
CCCc1cccc(-c2cc(NC(=O)[C@@H]3CNC(=O)C3)nn2-c2cccc(CCC(C)(C)C)c2)c1 [Example 498] | 70
O=C1C[C@H](C(=O)Nc2cc(-c3cccc(CNCC(F)(F)F)c3)n(-c3ccccc3)n2)CN1 [Example 501] | 69
O=C1C[C@H](C(=O)Nc2cc(-c3cccc(COCC(F)(F)F)c3)n(-c3cccc(OC4COC4)c3)n2)CN1 [Example 509] | 38
COc1ccc(F)c(-n2nc(NC(=O)[C@@H]3CNC(=O)C3)cc2-c2cccc(OC(F)(F)F)c2)c1 [Example 515] | 12
CCOc1ccc(F)c(-n2nc(NC(=O)[C@@H]3CNC(=O)C3)cc2-c2cccc(OC(F)(F)F)c2)c1 [Example 516] | 8.3
COCCOc1ccc(F)c(-n2nc(NC(=O)[C@@H]3CNC(=O)C3)cc2-c2cccc(OC(F)(F)F)c2)c1 [Example 518] | 11

Second part, the molecule after the results:

IC50 [nM] | Structure (SMILES)
3.1 | COCCOc1cccc(-n2nc(NC(=O)[C@@H]3CNC(=O)C3)cc2-c2cccc(CO[C@H](C)C(F)(F)F)c2)c1 [Example 455]
3.4 | COCCOc1cc(-n2nc(NC(=O)[C@@H]3CNC(=O)C3)cc2-c2cccc(CO[C@H](C)C(F)(F)F)c2)ccc1F [Example 456]
3.7 | COc1cc(-n2nc(NC(=O)[C@@H]3CNC(=O)C3)cc2-c2cccc(CO[C@H](C)C(F)(F)F)c2)ccc1F [Example 457]
4.8 | CCCc1cccc(-c2cc(NC(=O)[C@@H]3CNC(=O)C3)nn2-c2cccc(COC(C)C)c2)c1 [Example 459]
2.1 | CCOc1ccc(F)c(-n2nc(NC(=O)[C@@H]3CNC(=O)C3)cc2-c2cccc(COCC(F)(F)F)c2)c1 [Example 460]
1.4 | CC(C)Oc1ccc(F)c(-n2nc(NC(=O)[C@@H]3CNC(=O)C3)cc2-c2cccc(COCC(F)(F)F)c2)c1 [Example 461]
1.1 | CCOc1ccc(F)c(-n2nc(NC(=O)[C@@H]3CNC(=O)C3)cc2-c2cccc(CO[C@H](C)C(F)(F)F)c2)c1 [Example 463]
1.4 | CC(C)Oc1ccc(F)c(-n2nc(NC(=O)[C@@H]3CNC(=O)C3)cc2-c2cccc(CO[C@H](C)C(F)(F)F)c2)c1 [Example 464]
1.7 | COCCOc1ccc(F)c(-n2nc(NC(=O)[C@@H]3CNC(=O)C3)cc2-c2cccc(CO[C@H](C)C(F)(F)F)c2)c1 [Example 465]
26 | O=C1C[C@H](C(=O)Nc2cc(-c3cccc(OC(F)(F)F)c3)n(-c3cccc(F)c3)n2)CN1 [Example 467]
17 | O=C1C[C@H](C(=O)Nc2cc(-c3cccc(COCC(F)(F)F)c3)n(-c3cccc(F)c3)n2)CN1 [Example 468]
5.2 | C[C@@H](OCc1cccc(-c2cc(NC(=O)[C@@H]3CNC(=O)C3)nn2-c2cccc(F)c2)c1)C(F)(F)F [Example 469]
4.7 | C[C@@H](OCc1cccc(-c2cc(NC(=O)[C@@H]3CNC(=O)C3)nn2-c2ccccc2F)c1)C(F)(F)F [Example 472]
3.1 | C[C@@H](OCc1cccc(-c2cc(NC(=O)[C@@H]3CNC(=O)C3)nn2-c2ccccc2Cl)c1)C(F)(F)F [Example 475]
12 | CC(C)Oc1cccc(-n2nc(NC(=O)[C@@H]3CNC(=O)C3)cc2-c2cccc(COCC(F)(F)F)c2)c1F [Example 482]
4.2 | COc1cccc(-n2nc(NC(=O)[C@@H]3CNC(=O)C3)cc2-c2cccc(CO[C@H](C)C(F)(F)F)c2)c1F [Example 484]
4.1 | CCOc1cccc(-n2nc(NC(=O)[C@@H]3CNC(=O)C3)cc2-c2cccc(CO[C@H](C)C(F)(F)F)c2)c1F [Example 485]
6.5 | CC(C)Oc1cccc(-n2nc(NC(=O)[C@@H]3CNC(=O)C3)cc2-c2cccc(CO[C@H](C)C(F)(F)F)c2)c1F [Example 486]

IC50 [nM] | Structure (SMILES)
23 | COCCOc1cccc(-n2nc(NC(=O)[C@@H]3CNC(=O)C3)cc2-c2cccc(CO[C@H](C)C(F)(F)F)c2)c1F [Example 487]
18 | O=C1C[C@H](C(=O)Nc2cc(-c3cc(F)cc(COCC(F)(F)F)c3)n(-c3ccccc3)n2)CN1 [Example 488]
11 | COCc1cccc(-n2nc(NC(=O)[C@@H]3CNC(=O)C3)cc2-c2cccc(COCC(F)(F)F)c2)c1 [Example 489]
81 | O=C1C[C@H](C(=O)Nc2cc(-c3cccc(OC(F)(F)F)c3)n(-c3ccc(F)cc3)n2)CN1 [Example 502]
23 | O=C1C[C@H](C(=O)Nc2cc(-c3cccc(OC(F)(F)F)c3)n(-c3cccc(Cl)c3)n2)CN1 [Example 504]
11 | O=C1C[C@H](C(=O)Nc2cc(-c3cccc(COCC(F)(F)F)c3)n(-c3cccc(Cl)c3)n2)CN1 [Example 505]
4.7 | C[C@@H](OCc1cccc(-c2cc(NC(=O)[C@@H]3CNC(=O)C3)nn2-c2cccc(Cl)c2)c1)C(F)(F)F [Example 506]
20 | O=C1C[C@H](C(=O)Nc2cc(-c3cccc(COCC(F)(F)F)c3)n(-c3ccc(Cl)cc3)n2)CN1 [Example 508]
8.3 | O=C1C[C@H](C(=O)Nc2cc(-c3cc(F)cc(COCC(F)(F)F)c3)n(-c3ccccc3Cl)n2)CN1 [Example 510]
7.9 | O=C1C[C@H](C(=O)Nc2cc(-c3cc(F)cc(COCC(F)(F)F)c3)n(-c3cccc(Cl)c3)n2)CN1 [Example 511]
16 | O=C1C[C@H](C(=O)Nc2cc(-c3cc(F)cc(COCC(F)(F)F)c3)n(-c3ccc(Cl)cc3)n2)CN1 [Example 512]
3.2 | C[C@@H](OCc1cc(F)cc(-c2cc(NC(=O)[C@@H]3CNC(=O)C3)nn2-c2ccccc2Cl)c1)C(F)(F)F [Example 513]
4 | C[C@@H](OCc1cc(F)cc(-c2cc(NC(=O)[C@@H]3CNC(=O)C3)nn2-c2cccc(Cl)c2)c1)C(F)(F)F [Example 514]
3.8 | CC(C)Oc1ccc(F)c(-n2nc(NC(=O)[C@@H]3CNC(=O)C3)cc2-c2cccc(OC(F)(F)F)c2)c1 [Example 517]
13 | O=C1C[C@H](C(=O)Nc2cc(-c3cc(F)cc(COCC(F)(F)F)c3)n(-c3ccccc3F)n2)CN1 [Example 519]
18 | O=C1C[C@H](C(=O)Nc2cc(-c3cc(F)cc(COCC(F)(F)F)c3)n(-c3cccc(F)c3)n2)CN1 [Example 520]
5.15 | C[C@@H](OCc1cc(F)cc(-c2cc(NC(=O)[C@@H]3CNC(=O)C3)nn2-c2cccc(F)c2)c1)C(F)(F)F [Example 521]
5.3 | COc1ccc(F)c(-n2nc(NC(=O)[C@@H]3CNC(=O)C3)cc2-c2cccc(COCC(F)(F)F)c2)c1 [Example 522]

Same assay, conditions: CHO-K1, at 0.1 uM

Structure (SMILES) | inhibition at 0.1 µM [%]
COCCOc1cccc(-n2nc(NC(=O)[C@@H]3CNC(=O)C3)cc2-c2cccc(OC(F)(F)F)c2)c1F [Example 479] | 46
CC(C)(C)C#Cc1cccc(-c2cc(NC(=O)[C@@H]3CNC(=O)C3)nn2-c2ccccc2)c1 [Example 499] | 4
CCCc1cccc(-c2cc(NC(=O)[C@@H]3CNC(=O)CN3)nn2-c2ccccc2)c1 [Example 500] | 19

Next, values leading:

inhibition at 0.1 µM [%] | Structure (SMILES)
-17 | O=C1C[C@H](C(=O)Nc2cc(-c3cccc(COCC(F)(F)F)c3)n(-c3cc(Cl)ccc3F)n2)CN1 [Example 503]
50 | O=C1C[C@H](C(=O)Nc2cc(-c3cccc(OC(F)(F)F)c3)n(-c3ccc(Cl)cc3)n2)CN1 [Example 507]
